Assay results: US5445951A, “Regioselective enzymatic deacylation of sucrose esters in anhydrous organic media” (priority 1993, dated 1995)
Like-named read-outs stand apart in the source and are kept apart here.

What was measured:
[1] = n-octanol/water, cited from earlier work
[2] = tested on: lipase AY 30 deposited on Hyflo Super Cell; assay: Solvent effect on lipase AY 30 deposited on Hyflo Super Cell catalyzed deacetylation of SOA; assay type: biochemical, Candida cylindracea; settings: immobilized lipase AY 30, 24 hrs
Method: (§1) Alcalase and lipase AY 30 were deposited on Hyflo Super Cell and used as catalysts for SOA deacetylation reactions in several anhydrous solvents.
(§2) Enzyme immobilization. The pH of a solution of 900 mg of buffered alcalase in 18 ml of water was adjusted to 9.0 with dilute NaOH. Hyflo super cell (6 g) was added and the slurry thoroughly mixed. […] Lipase AY 30 was immobilized in the same manner except that the protein solution was adjusted to pH 7.0 with sodium phosphate.
(§3) Enzyme and Solvent Screening for SOA Deacetylation. A scintillation vial was charged successively with 100 mg of powdered enzyme as received or prepared as described and 1.0 ml of 20 mM sucrose octaacetate (SOA) dissolved in an organic solvent. Following a 5 sec sonication, the vial was incubated in a controlled-temperature shaker at 45° C. and 300 RPM for 24 hrs. A 200 μl aliquot of the reaction mixture was withdrawn and centrifuged. The supernatant was collected and evaporated under a stream of N2. The residue was reconstituted in 200 μl of acetonitrile and 10 μl of this solution was analyzed by HPLC.

[3] = tested on: alcalase deposited on Hyflo Super Cell; assay: Solvent effect on alcalase deposited on Hyflo Super Cell catalyzed deacetylation of SOA; assay type: biochemical, Bacillus licheniformis; settings: immobilized alcalase, 4 hour incubation; for SheptaA: total of 1'-OH and 6'-OH heptaacetates
Method: as §1, §2
as §3, with “Following a 5 sec sonication, the vial was incubated in a controlled-temperature shaker at 45° C. and 300 RPM for 24 hrs.” left out

proleather [4] = assay: Solvent effect on proleather catalyzed deacetylation of SOA; assay type: biochemical, Bacillus subtilis; settings: 24 hrs; for SheptaA: total of 1'-OH and 6'-OH heptaacetates; for SOA / ShexaA: solvent as labelled
Method: (§4) Identical enzyme catalyzed SOA deacetylations were run in numerous anhydrous solvents. After 24 hrs incubation an aliquot was analyzed by HPLC.
(§5) The pH of commercial powdered enzymes was adjusted in the following way: The enzyme (3 g) was dissolved in 25 ml of an appropriate buffer and the pH adjusted with dilute NaOH or citric/phosphoric acid solution. Cold acetone (37.5 ml at -20° C.) was added and the precipitate collected on a medium porosity glass funnel and dried overnight at 2 millitorr. The protein pellet was ground to a fine powder and equilibrated at 4° C. over saturated aqueous potassium carbonate (RH: 43%) for 24 hrs.
as §3

alcalase [5] = molecular target: T1, alcalase (Bacillus licheniformis, UniProt P00780); assay: Solvent effect on alcalase catalyzed deacetylation of SOA; assay type: biochemical; settings: 24 hrs; for SheptaA: total of 1'-OH and 6'-OH heptaacetates; for SOA / ShexaA: solvent as labelled
T1 construct: purchased Novo Nordisk (gift)
T1 sequence (P00780 106-379): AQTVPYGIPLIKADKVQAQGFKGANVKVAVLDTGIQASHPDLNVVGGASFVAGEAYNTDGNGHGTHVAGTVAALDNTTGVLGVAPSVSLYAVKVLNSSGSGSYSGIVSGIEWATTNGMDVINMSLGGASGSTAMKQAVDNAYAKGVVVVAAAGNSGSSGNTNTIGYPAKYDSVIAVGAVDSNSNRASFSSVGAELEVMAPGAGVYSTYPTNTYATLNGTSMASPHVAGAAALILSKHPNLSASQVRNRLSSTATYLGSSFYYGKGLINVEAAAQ
Method: as §4
Enzyme Precipitation. Alcalase was prepared by adding 37.5 ml cold acetone (-20° C.) to 25 ml of alcalase solution as supplied by Novo. The aqueous acetone was decanted and the residue dissolved in 25 ml of pH 9.0 glycine--NaOH buffer. The pH of this solution was adjusted to 9.0 with a few drops of dilute NaOH solution. Cold acetone (37.5 ml at -20° C.) was added to the buffered alcalase solution and the precipitate collected by filtration on a medium porosity glass funnel and dried overnight at 2 millitorr. The resulting pellet was ground to a fine powder and stored at 4° C. over saturated aqueous potassium carbonate (RH: 43%) for 24 hrs.
as §3

lipase AY 30 [6] = assay: Effect of the solvent on lipase AY 30 SOA deacetylation; assay type: biochemical, Candida cylindracea; settings: lipase AY 30, solvent as labelled, 24 hrs
Method: as §4, §3

lipase AP 12 [7] = assay: Solvent effect on lipase AP 12 catalyzed deacetylation of SOA; assay type: biochemical, Aspergillus niger; settings: lipase AP 12, solvent as labelled, 24 hrs
Method: as §4, §5, §3

lipase AY 30 [8] = assay: Effect of the solvent on lipase AY 30 catalyzed deacylation of SOP; assay type: biochemical, Candida cylindracea; as to SheptaP's ([…]): HPLC peak 8.2 min
Method: Identical SOP deacylations were performed with lipase AY 30 or protease type XXIII in numerous anhydrous organic solvents, as shown in Tables 12 and 13.
as §3, with “Solvent” for “Enzyme and Solvent”, “screening” for “Screening”, “SOP deacylation.” for “SOA Deacetylation.”, “lipase AY 30” for “powdered enzyme as received”, “protease type XXIII” for “prepared”, “octapropionate (SOP) and 200mM butanol” for “octaacetate (SOA)”

alcalase [9] = molecular target: T1, alcalase; assay: Nucleophile screening for alcalase catalyzed deacetylation of SOA in diisopropyl ether; assay type: biochemical; settings: for increase in conversion relative to reaction with no added nucleophile: 200 mM
Method: (§6) Nucleophile screening for alcalase, proleather or lipase AP 12 catalyzed deacetylation of SOA. A scintillation vial was charged successively with 100 mg of powdered enzyme prepared as described, 1.0 ml of 20 mM sucrose octaacetate (SOA) and 200 mM of the nucleophile dissolved in diisopropyl ether. Following a 5 sec sonication, the vial was incubated in a controlled-temperature shaker at 45° C. and 300 RPM for 66 hrs. A 200 μl aliquot of the reaction mixture was withdrawn and centrifuged. The supernatant was collected and evaporated under a stream of N2. The residue was reconstituted in 200 μl of acetonitrile and 10 μl of this solution was analyzed by HPLC. For screening concentration effects on enzyme activity, the same protocol was followed except the nucleophile concentration was varied from 0 to 2000 mM.

lipase AP 12 [10] = assay: Nucleophile screening for lipase AP 12 catalyzed deacetylation of SOA in diisopropyl ether; assay type: biochemical, Aspergillus niger; settings: for % conv: 66 hrs
Method: as §6

proleather [11] = assay: Nucleophile screening for proleather catalyzed deacetylation of SOA in diisopropyl ether; assay type: biochemical, Bacillus subtilis; settings: for % conv: 66 hrs
Method: as §6

[12] = nucleophile 200 mM, peak height ratio 1'-OH / 6'-OH heptaacetate
[13] = lipase AP 12, nucleophile 200 mM
[14] = methanol 20 mM, peak height ratio
[15] = methanol 50 mM, peak height ratio
[16] = methanol 100 mM, peak height ratio
[17] = methanol 200 mM (Table 10), peak height ratio
[18] = methanol 500 mM, peak height ratio
[19] = methanol 1000 mM, peak height ratio
[20] = methanol 2000 mM, peak height ratio

In the case of `CC(C)OC(C)C` [diisopropyl ether], the “log P” value [1] is given as 1.9, the SOA [2] is given as 85.7% and the SheptaA [2] is given as 14.3%. The SOA [3] was 89.3%, the ShexaA [3] was 0.8% and the SheptaA [3] was 9.9%. The SheptaA (proleather [4]) was 25.9%, the SOA (proleather [4]) was 70.6% and the ShexaA (proleather [4]) was 3.5%. For the same compound, the SheptaA (alcalase [5]) was 22.3%, the SOA (alcalase [5]) was 75.2% and the ShexaA (alcalase [5]) was 2.5%. It also gave an SOA (lipase AY 30 [6]) of 29.6%, a SheptaA (lipase AY 30 [6]) of 39.6% and a ShexaA (lipase AY 30 [6]) of 30.9%. For the same compound, the SOA (lipase AP 12 [7]) was 82.7%, the SheptaA (lipase AP 12 [7]) was 15.7% and the ShexaA (lipase AP 12 [7]) was 1.6%. The “ShexaP (4.2 min)” value (lipase AY 30 [8]; lipase AY 30, 24 hrs, HPLC peak 4.2 min) was 13.0%, the “SheptaP's (8.9 min)” value (lipase AY 30 [8]; lipase AY 30, 24 hrs, HPLC peak 8.9 min) was 1.5% and the “SheptaP's (9.4 min)” value (lipase AY 30 [8]; lipase AY 30, 24 hrs, HPLC peak 9.4 min) was 13.5%. For the same compound, the “SheptaP's ([…])” value (lipase AY 30 [8]; lipase AY 30, 24 hrs, HPLC peak […]) was 17.3% and the SOA (lipase AY 30 [8]; lipase AY 30, solvent as labelled, 200 mM butanol, 24 hrs, peak 21.4 min) was 54.7%.

For `CC(C)NC(C)C` [diisopropylamine], the “increase in conversion relative to reaction with no added nucleophile” value (alcalase [9]) was “at least 25%”, the regiochem (alcalase [9]; [12]) was 9.5 and the “% conv” value (lipase AP 12 [10]; [13]) was 3.2%. For the same compound, the “% conv” value (proleather [11]; nucleophile 200 mM) was 37.3% and the regiochem (proleather [11]; [12]) was 4.9.

In the case of `CCCOCCC` [dipropyl ether], the “log P” value ([1]; from Laane et al.) is given as 1.9, the SOA [2] is given as 93.4% and the SheptaA [2] is given as 6.6%. It also gave an SOA [3] of 92.9%, a ShexaA [3] of 0.6% and a SheptaA [3] of 6.5%. For the same compound, the SheptaA (proleather [4]) was 21.5%, the SOA (proleather [4]) was 75.2% and the ShexaA (proleather [4]) was 3.3%. It also gave a SheptaA (alcalase [5]) of 14.5%, an SOA (alcalase [5]) of 83.9% and a ShexaA (alcalase [5]) of 1.6%. The SOA (lipase AY 30 [6]) was 51.6%, the SheptaA (lipase AY 30 [6]) was 32.4% and the ShexaA (lipase AY 30 [6]) was 16.0%. For the same compound, the SOA (lipase AP 12 [7]) was 81.8%, the SheptaA (lipase AP 12 [7]) was 15.9% and the ShexaA (lipase AP 12 [7]) was 2.3%.

With `CCO` [ethanol] the regiochem (alcalase [9]; [12]) was 7.5, the “% conv” value (lipase AP 12 [10]; [13]) was 26.7% and the “% conv” value (proleather [11]; nucleophile 200 mM) was 47.7%. For the same compound, the regiochem (proleather [11]; [12]) was 5.6.

With `CO` [methanol] the “increase in conversion relative to reaction with no added nucleophile” value (alcalase [9]) was “at least 25%”, the “enhancement in overall conversion” value (alcalase [9]; 0.5M methanol, in words) was “modest enhancements in overall conversion” and the regiochem (alcalase [9]; [14]) was 7.4. It also gave a regiochem (alcalase [9]; [15]) of 8.3, a regiochem (alcalase [9]; [16]) of 8.1 and a regiochem (alcalase [9]; [17]) of 8.6. The regiochem (alcalase [9]; [18]) was 8.2, the regiochem (alcalase [9]; [19]) was 5.6 and the regiochem (alcalase [9]; [20]) was 7.1. For the same compound, the regiochem (alcalase [9]; [12]) was 8.6, the “enhancement in overall conversion” value (lipase AP 12 [10]; lipase AP 12, 1.0M methanol, in words) was “modest enhancements in overall conversion” and the “% conv” value (lipase AP 12 [10]; lipase AP 12, methanol 20 mM) was 22.4%. The “% conv” value (lipase AP 12 [10]; lipase AP 12, methanol 50 mM) was 23.5%, the “% conv” value (lipase AP 12 [10]; lipase AP 12, methanol 100 mM) was 25.7% and the “% conv” value (lipase AP 12 [10]; lipase AP 12, methanol 200 mM (Table 10)) was 24.0%. The “% conv” value (lipase AP 12 [10]; lipase AP 12, methanol 500 mM) was 31.3%, the “% conv” value (lipase AP 12 [10]; lipase AP 12, methanol 1000 mM) was 33.4% and the “% conv” value (lipase AP 12 [10]; lipase AP 12, methanol 2000 mM) was 21.3%. For the same compound, the “% conv” value (lipase AP 12 [10]; [13]) was 28.2%, the increase in conversion (proleather [11]; 1.0M methanol) was 120% and the “% conv” value (proleather [11]; methanol 20 mM) was 38.1%. For the same compound, the regiochem (proleather [11]; [14]) was 4.8, the “% conv” value (proleather [11]; methanol 50 mM) was 41.2% and the regiochem (proleather [11]; [15]) was 5.9. For the same compound, the “% conv” value (proleather [11]; methanol 100 mM) was 44.6%, the regiochem (proleather [11]; [16]) was 6.6 and the “% conv” value (proleather [11]; methanol 200 mM (Table 10)) was 49.4%. For the same compound, the regiochem (proleather [11]; [17]) was 7.9, the “% conv” value (proleather [11]; methanol 500 mM) was 65.4% and the regiochem (proleather [11]; [18]) was 12.4. The “% conv” value (proleather [11]; methanol 1000 mM) was 71.1%, the regiochem (proleather [11]; [19]) was 12.6 and the “% conv” value (proleather [11]; methanol 2000 mM) was 66.8%. For the same compound, the regiochem (proleather [11]; [20]) was 11.5, the “% conv” value (proleather [11]; nucleophile 200 mM) was 53.8% and the regiochem (proleather [11]; [12]) was 8.4.

In the case of `OCCc1ccccc1` [phenethyl alcohol], the regiochem (alcalase [9]; [12]) is reported as 7.3, the “% conv” value (lipase AP 12 [10]; [13]) is reported as 25.7% and the “% conv” value (proleather [11]; nucleophile 200 mM) is reported as 51.5%. For the same compound, the regiochem (proleather [11]; [12]) was 5.3.
